{"source": "paper PMC5502055", "about": "“Phase II study of lanreotide autogel in Japanese patients with unresectable or metastatic well-differentiated neuroendocrine tumors” (Investigational New Drugs, 2017)", "type_in_all_cases": "in vivo, human", "key": {"serum CgA": {"system": "serum CgA", "assay": "Serum chromogranin A (CgA) concentration", "settings": "15 of 17 patients with baseline CgA >100 ng/mL", "protocol": "Serum CgA, serum anti-lanreotide antibody, and serum lanreotide testing methods are described in the Electronic Supplementary Material.\nIn the primary analysis, the CBR point estimate at 24 weeks after the first injection and an exact F distribution-based 95% confidence interval (CI) were calculated. The CBR was selected as the primary endpoint, because maintaining SD was deemed beneficial and clinically meaningful for NET patients. In the secondary analysis, Kaplan–Meier curves of PFS and OS were prepared, and median values and 95% CIs were calculated. The ORRs at 24, 48, and 60 weeks after the first injection were also calculated. Regarding percent changes from baseline in the sum of the diameters of target lesion, descriptive statistics were calculated for each evaluation time point, and waterfall plots of the best response and last evaluation time points were prepared. Regarding the serum CgA concentration and QOL evaluation, descriptive statistics of changes from baseline were calculated for each time point. For all endpoints, the starting point of evaluation was set as the baseline for the phase II study.\nSerum chromogranin A concentrations were determined centrally every 12 weeks for the 48-weeks period following the start of administration, and every 24 weeks thereafter (SRL Medisearch Inc.,Tokyo,Japan, Kit Cisbio)."}, "[1]": {"assay": "Serum anti-lanreotide antibody test (radioimmunoprecipitation assay)", "protocol": "For the safety evaluation, adverse events (AEs) were recorded after the first injection until the point of data cutoff (December 2015) in the extension study. AE severity was assessed according to the National Cancer Institute Common Terminology Criteria for Adverse Events (NCI-CTCAE) ver. 4.0. Gallbladder echography and blood evaluations, including serum anti-lanreotide antibody tests were performed every 12 weeks during the 48 -week period after the first injection, and every 24 weeks thereafter.\nSerum anti-lanreotide antibody levels were determined every 4 weeks for the 24-weeks period following the start of administration, and every 12 weeks thereafter for the 48-weeks. Serum anti-lanreotide antibody levels were centrally determined using a validated radioimmunoprecipitation assay (RIPA; SGS Cephac, Saint-Benoît, France). Anti-lanreotide antibody-positivity was evaluated in two stages: screening test and confirmation test. Antibody titers were determined for samples found to be positive in the confirmation test."}, "[2]": {"system": "Japanese patients with grade (G) 1/G2 NET", "assay": "Quality of life, EORTC QLQ-C30 (ver. 3.0)", "settings": "EORTC QLQ-C30, individual terms", "source_text": "The primary endpoint was the clinical benefit rate (CBR) at 24 weeks after the first injection, which served to indicate and confirm the anti-tumor effects of lanreotide. The CBR was defined as the percentage of patients in the analysis set who achieved a complete response or partial response (PR) as the best overall response, or those who maintained stable disease (SD) over 24 weeks after the first injection by central review. Secondary efficacy endpoints were progression-free survival (PFS), overall survival (OS), objective response rate (ORR), and the percent change from baseline in the sum of the diameters of target lesion from baseline. […] Regarding tumor lesion imaging ≥4 weeks before the baseline, the investigators evaluated computed tomography (CT) or magnetic resonance imaging (MRI) data based on the RECIST (ver. 1.1). To evaluate anti-tumor effects after baseline, CT or MRI data were evaluated centrally by an independent third party based on the RECIST (ver. 1.1). During the study period, images of each patient were determined using the same method (CT or MRI), according to the standardized procedure at each site. […]\nIn the primary analysis, the CBR point estimate at 24 weeks after the first injection and an exact F distribution-based 95% confidence interval (CI) were calculated. […] The ORRs at 24, 48, and 60 weeks after the first injection were also calculated. […]"}}, "data": [{"smiles": "CC(C)[C@@H]1NC(=O)[C@H](CCCCN)NC(=O)[C@@H](Cc2c[nH]c3ccccc23)NC(=O)[C@H](Cc2ccc(O)cc2)NC(=O)[C@@H](NC(=O)[C@H](N)Cc2ccc3ccccc3c2)CSSC[C@@H](C(=O)N[C@H](C(N)=O)[C@@H](C)O)NC1=O", "note": "[lanreotide]", "values": [{"measurement": "patients with serum CgA decrease of ≥50% by last examination relative to baseline", "setting": "serum CgA", "value": 88.2, "unit": "%"}, {"measurement": "patients positive for anti-lanreotide antibodies", "setting": "[1]; 2 patients, RIPA", "value": 6.3, "unit": "%"}, {"measurement": "Anti-lanreotide antibody test", "setting": "[1]; Patient A, Baseline", "value": "Negative"}, {"measurement": "Anti-lanreotide antibody test", "setting": "[1]; Patient A, Week 4", "value": "Negative"}, {"measurement": "Anti-lanreotide antibody test", "setting": "[1]; Patient A, Week 8", "value": "Negative"}, {"measurement": "Anti-lanreotide antibody test", "setting": "[1]; Patient A, Week 12", "value": "Negative"}, {"measurement": "Anti-lanreotide antibody test", "setting": "[1]; Patient A, Week 16", "value": "Positive"}, {"measurement": "Antibody titer", "setting": "[1]; Patient A, Week 16", "value": "1/1"}, {"measurement": "Anti-lanreotide antibody test", "setting": "[1]; Patient A, Week 20", "value": "Negative"}, {"measurement": "Anti-lanreotide antibody test", "setting": "[1]; Patient A, Week 24", "value": "Negative"}, {"measurement": "Anti-lanreotide antibody test", "setting": "[1]; Patient A, Week 36", "value": "Positive"}, {"measurement": "Antibody titer", "setting": "[1]; Patient A, Week 36", "value": "1/2"}, {"measurement": "Anti-lanreotide antibody test", "setting": "[1]; Patient B, Baseline", "value": "Negative"}, {"measurement": "Anti-lanreotide antibody test", "setting": "[1]; Patient B, Week 4", "value": "Negative"}, {"measurement": "Anti-lanreotide antibody test", "setting": "[1]; Patient B, Week 8", "value": "Positive"}, {"measurement": "Antibody titer", "setting": "[1]; Patient B, Week 8", "value": "1/4"}, {"measurement": "Anti-lanreotide antibody test", "setting": "[1]; Patient B, Week 12", "value": "Positive"}, {"measurement": "Antibody titer", "setting": "[1]; Patient B, Week 12", "value": "1/32"}, {"measurement": "Anti-lanreotide antibody test", "setting": "[1]; Patient B, Week 16", "value": "Positive"}, {"measurement": "Antibody titer", "setting": "[1]; Patient B, Week 16", "value": "1/32"}, {"measurement": "Anti-lanreotide antibody test", "setting": "[1]; Patient B, Week 20", "value": "Positive"}, {"measurement": "Antibody titer", "setting": "[1]; Patient B, Week 20", "value": "1/64"}, {"measurement": "Anti-lanreotide antibody test", "setting": "[1]; Patient B, Week 24", "value": "Positive"}, {"measurement": "Antibody titer", "setting": "[1]; Patient B, Week 24", "value": "1/64"}, {"measurement": "Anti-lanreotide antibody test", "setting": "[1]; Patient B, Week 36", "value": "Positive"}, {"measurement": "Antibody titer", "setting": "[1]; Patient B, Week 36", "value": "1/256"}, {"measurement": "Anti-lanreotide antibody test", "setting": "[1]; Patient B, Week 48", "value": "Positive"}, {"measurement": "Antibody titer", "setting": "[1]; Patient B, Week 48", "value": "1/512"}, {"measurement": "QOL transformed scores versus baseline", "setting": "[2]", "value": "did not differ significantly"}]}]}
